Measurements as given in PMC2099433, “The binding site for neohesperidin dihydrochalcone at the human sweet taste receptor” (BMC Structural Biology, 2007).
Substitutions are numbered along the chain they refer to. Where a SMILES comes first, the peptide text is derived from it.

Key:
[1] = biological target: T1, hTAS1R2 + hTAS1R3 S726A^5.39 (Homo sapiens, UniProt Q7RTX0+Q8TE23, S726A); assay: Calcium response (FLIPR), hTAS1R3 mutant coexpressed with hTAS1R2; type: cell-based; details: variant S726A^5.39; for Emax: read-out: maximal signal (% of wt)
T1 construct: expressed in transfected cells; host or cells: HEK293T cells stably expressing G16Gust44
T1 sequence (Q7RTX0 21-852 S726A): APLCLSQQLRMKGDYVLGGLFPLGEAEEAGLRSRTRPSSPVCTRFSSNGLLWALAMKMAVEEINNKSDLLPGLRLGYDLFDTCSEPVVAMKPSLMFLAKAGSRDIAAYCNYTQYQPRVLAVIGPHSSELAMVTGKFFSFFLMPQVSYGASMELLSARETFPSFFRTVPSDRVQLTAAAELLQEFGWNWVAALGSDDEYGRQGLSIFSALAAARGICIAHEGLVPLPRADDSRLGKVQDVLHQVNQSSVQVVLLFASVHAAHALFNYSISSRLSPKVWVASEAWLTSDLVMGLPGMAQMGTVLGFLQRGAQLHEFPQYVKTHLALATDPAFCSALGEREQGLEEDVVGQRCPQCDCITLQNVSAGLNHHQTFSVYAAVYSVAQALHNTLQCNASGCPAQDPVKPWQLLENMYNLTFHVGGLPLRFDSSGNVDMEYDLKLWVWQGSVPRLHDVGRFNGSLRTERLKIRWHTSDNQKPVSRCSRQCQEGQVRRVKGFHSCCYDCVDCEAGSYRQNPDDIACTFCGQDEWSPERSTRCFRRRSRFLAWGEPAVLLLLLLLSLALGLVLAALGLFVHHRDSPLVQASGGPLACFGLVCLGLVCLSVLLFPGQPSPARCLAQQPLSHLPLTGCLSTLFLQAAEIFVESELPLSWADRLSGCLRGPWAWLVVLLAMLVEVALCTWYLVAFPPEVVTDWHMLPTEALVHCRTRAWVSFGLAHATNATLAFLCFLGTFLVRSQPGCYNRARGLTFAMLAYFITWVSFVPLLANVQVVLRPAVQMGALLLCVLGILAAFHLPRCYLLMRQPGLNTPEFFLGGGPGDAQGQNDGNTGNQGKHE
T1 sequence (Q8TE23 20-839): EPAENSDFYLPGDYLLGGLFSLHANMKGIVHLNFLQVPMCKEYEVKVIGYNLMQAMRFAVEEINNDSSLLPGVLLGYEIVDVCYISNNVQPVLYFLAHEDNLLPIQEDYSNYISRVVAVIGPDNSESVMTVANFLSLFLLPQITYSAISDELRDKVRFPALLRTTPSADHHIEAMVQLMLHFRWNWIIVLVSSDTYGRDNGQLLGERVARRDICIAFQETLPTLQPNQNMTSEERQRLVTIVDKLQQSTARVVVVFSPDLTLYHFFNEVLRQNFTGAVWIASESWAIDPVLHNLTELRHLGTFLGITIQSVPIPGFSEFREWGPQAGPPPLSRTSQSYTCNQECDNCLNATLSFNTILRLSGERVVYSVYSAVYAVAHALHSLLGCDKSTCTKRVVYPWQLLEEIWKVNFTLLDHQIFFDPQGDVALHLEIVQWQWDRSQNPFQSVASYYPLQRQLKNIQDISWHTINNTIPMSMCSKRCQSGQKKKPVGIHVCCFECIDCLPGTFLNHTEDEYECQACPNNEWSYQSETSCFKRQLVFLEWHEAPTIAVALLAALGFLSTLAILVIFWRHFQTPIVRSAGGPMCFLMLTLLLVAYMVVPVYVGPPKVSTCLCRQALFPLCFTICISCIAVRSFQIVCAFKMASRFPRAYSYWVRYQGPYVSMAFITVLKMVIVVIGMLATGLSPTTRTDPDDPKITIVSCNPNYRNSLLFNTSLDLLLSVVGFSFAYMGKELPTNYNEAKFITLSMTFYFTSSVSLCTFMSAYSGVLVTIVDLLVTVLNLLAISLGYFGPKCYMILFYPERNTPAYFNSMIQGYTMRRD
Procedure: (§1) The cDNAs for TAS1Rs tagged at the C-terminus with the herpes simplex virus glycoprotein D (HSV) were transiently transfected into HEK293T cells stably expressing the chimeric G-protein subunit G16Gust44 [44] using Lipofectamine 2000 (Invitrogen, Carlsbad, CA) according to the manufacturer's protocol. 3–4 hours after transfection, DMEM was replaced by low-glucose DMEM supplemented with GlutaMAX and 10% dialyzed FBS (Invitrogen, Carlsbad, CA). 24 h post transfection, cells were loaded for 1 h with the calcium sensitive dye Fluo4-AM (2 μg/ml in DMEM, Molecular Probes, Carlsbad, CA). […] We monitored calcium mobilization following receptor stimulation with sweet tastants by an automated fluorometric imaging plate reader (FLIPR, Molecular Devices, Sunnyvale, CA). Compounds used as stimuli (Sigma-Aldrich, St. Louis, MO; Merck, Whitehouse Station, NJ) were dissolved in C1 solution. All data were collected from at least three independent experiments carried out in duplicate. The obtained calcium signals were corrected for the response of mock transfected cells and normalized to the fluorescence of cells prior to the application of the stimulus using ΔF/F = (F-F0)/F0.

[2] = biological target: T2, hTAS1R2 + hTAS1R3 W775A^6.48 (Homo sapiens, UniProt Q7RTX0+Q8TE23, W775A); assay: as above; type: cell-based; details: for EC50 / Emax: variant W775A^6.48; for EC50: (>) EC50 not calculable because saturation is not reached; for Emax: read-out: maximal signal (% of wt)
T2 construct: expressed in transfected cells; host or cells: HEK293T cells stably expressing G16Gust44
T2 sequence (Q8TE23 20-839): T1 sequence (Q8TE23 20-839)
T2 sequence (Q7RTX0 21-852 W775A): T1 sequence (Q7RTX0 21-852 S726A) with A706S, W755A
Procedure: as §1

Row | SMILES | EC50 [1] | Emax [1] | EC50 [2] | Emax [2] | receptor activation ([2]; mutant W775A^6.48, any tested concentration)
1 | COc1ccc(CCC(=O)c2c(O)cc(O[C@@H]3O[C@H](CO)[C@@H](O)[C@H](O)[C@H]3O[C@@H]3O[C@@H](C)[C@H](O)[C@@H](O)[C@H]3O)cc2O)cc1O [NHDC, neohesperidin dihydrochalcone] | 0.9 ± 0.3 mM | 60 ± 50% | > 3 mM | 30 ± 41% | –
2 | COC(=O)[C@H](Cc1ccccc1)NC(=O)[C@@H](N)CC(=O)O [aspartame] (HELM PEPTIDE1{D.F.[CO[*:1]]}$$$$V2.0) | 0.9 ± 0.3 mM | 50 ± 2% | 1.9 ± 0.2 mM | 20 ± 30% | –
3 | O=S(=O)(O)NC1CCCCC1 [cyclamate] | > 10 mM | – | – | – | could not be activated at any tested concentration
